PMC11397035, “In Vitro and In Silico Analysis of PTP1B Inhibitors from Cleistocalyx operculatus Leaves and Their Effect on Glucose Uptake” (Nutrients, 2024)
Entries after “also recorded” stand apart in the source; their conditions may differ. Like-named read-outs stand apart in the source and are kept apart here.

Columns and labels:
[1] = molecular target: T1, PTP1B (Homo sapiens, UniProt P18031); assay: In vitro PTP1B inhibition assay (p-NPP substrate); format: biochemical
T1 construct: purchased Enzo Life Sciences Inc
T1 sequence (P18031 1-435): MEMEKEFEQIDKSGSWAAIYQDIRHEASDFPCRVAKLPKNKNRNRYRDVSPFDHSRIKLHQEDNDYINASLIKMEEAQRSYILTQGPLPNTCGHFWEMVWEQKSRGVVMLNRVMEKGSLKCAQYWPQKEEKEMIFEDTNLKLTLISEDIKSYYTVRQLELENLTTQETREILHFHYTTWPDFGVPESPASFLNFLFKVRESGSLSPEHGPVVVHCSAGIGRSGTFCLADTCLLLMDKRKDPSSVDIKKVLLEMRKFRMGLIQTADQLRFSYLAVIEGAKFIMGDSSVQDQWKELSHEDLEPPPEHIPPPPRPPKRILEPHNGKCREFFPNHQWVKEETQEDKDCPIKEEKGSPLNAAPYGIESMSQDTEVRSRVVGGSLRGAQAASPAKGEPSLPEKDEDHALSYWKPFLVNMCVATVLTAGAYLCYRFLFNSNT
Description: PTP1B enzyme inhibition activity was assessed following a previously described protocol. […] It was followed by incubation at 37 °C for 30 min. After that, 10 μL of 10 M NaOH was added to quench the reaction. […] The non-enzymatic reaction of the substrate was considered and accounted for by comparing data to a control experiment without the PTP1B enzyme. IC50 values were calculated using non-linear regression in GraphPad Prism 10 (GraphPad Software, Inc., San Diego, CA, USA), based on triplicate experiments.

[2] = system: 3T3-L1 adipocytes; assay: Glucose uptake using the 2-NBDG probe in differentiated 3T3-L1 adipocytes; format: cell-based; conditions: 1 h; for glucose uptake (2-NBDG) stimulatory effect: 20 μM; for concentration-response of glucose uptake stimulation: 5, 10, and 20 μM
Description: 3T3-L1 fibroblasts were cultured in DMEM (HyClone, Logan, UT, USA) supplemented with 10% calf serum, 100 U/mL penicillin, and 100 μg/mL streptomycin from Gibco (Grand Island, NY, USA). The cells were incubated at 37 °C with 5% CO2. Cells were differentiated after treatment with DMEM enriched with 10% fetal bovine serum (FBS) (HyClone, Logan, UT, USA), 1 μM dexamethasone (Sigma, St. Louis, MO, USA), 520 μM 3-isobutyl-1-methylxanthine (Sigma, St. Louis, MO, USA), and 1 μg/mL insulin (Roche, Mannheim, Germany). After 48 h, the media were changed with fresh DMEM containing 10% FBS, 1 μg/mL insulin, 100 U/mL penicillin, and 100 μg/mL streptomycin. Every 48 ours, the media were replaced until the induction of adipogenesis. Intracellular lipid droplets appeared after 4 to 6 days of incubation.
In vitro experiments measured glucose uptake in 3T3-L1 adipocytes using 2-NBDG, a fluorescent glucose derivative (Invitrogen, Eugene, OR, USA). Cells were cultured on 96-well plates in a glucose-free medium supplemented with 10% FBS. After incubation, cells were treated with either insulin (as a positive control) or the test compounds in the presence or absence of 2-NBDG and were further incubated for an additional hour. Cells were washed with cold phosphate-buffered saline (PBS). The 2-NBDG fluorescence was quantified by measuring the signal intensity at excitation/emission wavelengths of 450/535 nm using a SpectraMax Gemini XPS fluorescence microplate reader (Molecular Devices, San Jose, CA, USA). For cellular transport studies involving 2-NBDG, 3T3-L1 adipocytes were grown on sterilized glass coverslips in a glucose-free medium containing 10% FBS for 24 h. After treatment with 2-NBDG, cells were washed with cold PBS. Fluorescent images were obtained with an Olympus IX 70 fluorescence microscope (Olympus Corporation, Tokyo, Japan) to quantify the cellular transport of 2-NBDG.

[3] = molecular target: T1, PTP1B; assay: Kinetic analysis with PTP1B (Lineweaver–Burk and Dixon plots); format: biochemical; conditions: for Ki: determined by Dixon plot interpretation; for Inhibition Type: determined by Lineweaver–Burk plots
Description: Reaction velocity was measured at different concentrations of tested compounds for kinetic analysis. The tested compounds or DMSO were preincubated with the enzyme and buffer solution at 37 °C for 2 min, followed by adding 50 μL of substrate (p-NPP) at different concentrations. The initial reaction velocities were monitored at 37 °C at 405 nm for 15 min. The kinetic reaction slopes were calculated based on the absorbance increments observed between 2 and 10 min (within the linear range). GraphPad Prism 10 (GraphPad Software, Inc., San Diego, CA, USA) was used to graph the double reciprocal Lineweaver–Burk and Dixon plots.

[4] = system: pre-diabetic male Sprague Dawley rats; design: method as in PMID 29596390; conditions: pre-diabetic male Sprague Dawley rats ref 44; cited from earlier work
[5] = system: 3T3-L1 adipocytes; design: method as in PMID 27765349; conditions: cited from earlier work
[6] = 50% PTP1B inhibitory effect, mean ± S.E.M. of triplicate experiments, six concentrations, read-out: IC50

SMILES	IC50 [1, 6]	PTP1B inhibitory activity (in words) [1]	glucose uptake (2-NBDG) stimulatory effect [2]	other results
C=C(CO)C1CCC2(C(=O)OC)CCC3(C(=O)O)C(CCC4C5(C)CCC(O)C(C)(C)C5CCC43C)C12 (centres unmarked) [Compound 1, Cleistocalyxic acid L]	> 20 µM	–	–	–
C=C(C)C1CCC2(C(=O)OC)CCC3(C(=O)O)C(CCC4C5(C)CCC(O)C(C)(CO)C5CCC43C)C12 (centres unmarked) [Compound 2, Cleistocalyxic acid M]	> 20 µM	–	–	–
C=C1CCC23CCC4(C)C5(C)CCC6C(=C)C(O)C(O)CC6(C)C5C5OC5C4(OC2=O)C3C1C (centres unmarked) [Compound 3, Cleistocalyxolide C]	> 20 µM	reduced inhibitory effects	low glucose uptake stimulation	–
C=C(C)[C@@H]1CC[C@]2(C(=O)OC)CC[C@]3(C(=O)O)C(CCC4[C@@]5(C)CC[C@H](O)C(C)(C)C5CC[C@]43C)C12 (some centres unmarked) [Compound 4, melaleucic acid 28-O-methyl ester]	8.7 ± 0.6 µM	–	–	–
C=C(C)[C@@H]1CC[C@]2(C(=O)O)CC[C@]3(C)[C@H](CC[C@@H]4[C@@]5(C)CC[C@H](O)C(C)(C)[C@@H]5CC[C@]43C)[C@@H]12 [Compound 5, betulinic acid]	2.2 ± 0.1 µM	significant inhibitory activity	–	–
C=C(C)[C@@H]1CC[C@]2(C(=O)O)CC[C@]3(C)[C@H](CC[C@@H]4[C@@]5(C)C[C@@H](O)[C@H](O)C(C)(C)[C@@H]5CC[C@]43C)[C@@H]12 [Compound 6, alphitolic acid]	4.1 ± 0.2 µM	strong PTP1B inhibitory activities	showed glucose uptake stimulatory effects; also recorded: particularly potent glucose uptake stimulatory effects	Ki [3]: 2.8 ± 0.4 µM; Inhibition Type [3]: non-competitive inhibitor of PTP1B; concentration-response of glucose uptake stimulation [2]: dose dependent
C=C1[C@@H](O)[C@H](O)C[C@]2(C)[C@H]3[C@@H]4O[C@@H]4[C@]45OC(=O)[C@@]6(CC[C@@H](C)[C@H](C)[C@H]64)CC[C@@]5(C)[C@]3(C)CC[C@@H]12 [Compound 7, ulmoidol]	> 20 µM	reduced inhibitory effects	low glucose uptake stimulation	–
CC1(C)CCC23CCC4(C)C5(C)CCC6C(C)(C)C(O)C(O)CC6(C)C5CC(O)C4(OC2=O)C3C1 (centres unmarked) [Compound 8, (2a, 3b, 12a)-trihydorxy-olean-28-oic acid 28,13-lactone]	> 20 µM	reduced inhibitory effects	low glucose uptake stimulation	–
C[C@@H]1CC[C@]2(C(=O)O)CC[C@]3(C)C(=CCC4[C@@]5(C)C[C@@H](O)[C@H](O)[C@@](C)(CO)C5CC[C@]43C)C2[C@]1(C)O (some centres unmarked) [Compound 9]	4.4 ± 0.5 µM	strong PTP1B inhibitory activities	–	Ki [3]: 7.6 ± 1.2 µM; Inhibition Type [3]: non-competitive inhibitor of PTP1B
C=C1C2CC[C@]3(C)C(CC=C4C5[C@](C(=O)O)(CC[C@@H](C)[C@@]5(C)O)CC[C@]43C)[C@@]2(C)C[C@@H](O)[C@@H]1O (stereo partly drawn) [Compound 10, 2α,3β,19α-trihydroxy-24-norurs-4(23),12-dien-28-oic acid]	12.2 ± 0.3 µM	–	–	–
C=C1[C@@H](O)[C@H](O)C[C@]2(C)[C@H]3CC=C4[C@@H]5[C@@H](C)[C@H](C)CC[C@]5(C(=O)O)CC[C@@]4(C)[C@]3(C)CC[C@@H]12 [Compound 11, ilekudinol B]	14.1 ± 0.3 µM	–	–	–
CC1(C)CC[C@]2(C(=O)O)CC[C@]3(C)C(=CC[C@@H]4[C@@]5(C)CC[C@H](O)C(C)(C)[C@@H]5CC[C@]43C)[C@@H]2C1 [Compound 12, oleanolic acid]	–	–	showed glucose uptake stimulatory effects	glucose homeostasis and progression of type 2 diabetes [4]: improve glucose homeostasis and prevent the progression of type 2 diabetes
CC1(C)CC[C@]2(C(=O)O)CC[C@]3(C)C(=CC[C@@H]4[C@@]5(C)C[C@@H](O)[C@H](O)C(C)(C)[C@@H]5CC[C@]43C)[C@@H]2C1 [Compound 13, maslinic acid]	–	significant inhibitory activity	showed glucose uptake stimulatory effects; also recorded: particularly potent glucose uptake stimulatory effects	IC50 [1]: 1.28 ± 0.1 µM; Ki [3]: 3.2 ± 0.6 µM; Inhibition Type [3]: non-competitive inhibitor of PTP1B; concentration-response of glucose uptake stimulation [2]: dose dependent; glucose uptake [5]: increased glucose uptake; intracellular Ca2+ concentration [5]: raised intracellular Ca^2+ concentration; lipid droplet and triglyceride levels [5]: reduced lipid droplet and triglyceride levels
CC1(C)CC[C@]2(CO)CC[C@]3(C)C(=CC[C@@H]4[C@@]5(C)CC[C@H](O)C(C)(C)[C@@H]5CC[C@]43C)[C@@H]2C1 [Compound 14, erythrodiol]	3.6 ± 0.2 µM	–	–	–
CC1(C)CC[C@]2(C(=O)O)CC[C@]3(C)C(=CC[C@@H]4[C@@]5(C)C[C@@H](O)[C@H](O)[C@@](C)(CO)[C@@H]5CC[C@]43C)[C@@H]2C1 [Compound 15, arjunolic acid]	6.6 ± 0.6 µM	–	–	–
CC1(C)CC[C@]2(C(=O)O)CC[C@]3(C)C(=CCC4[C@@]5(C)C[C@@H](O)[C@H](OC(=O)/C=C/c6ccc(O)cc6)C(C)(C)C5CC[C@]43C)C2C1 (some centres unmarked) [Compound 16, 3-O-(E)-p-coumaroyl maslinic acid]	3.6 ± 0.4 µM	–	showed glucose uptake stimulatory effects	–
CC1(C)CC[C@]2(C(=O)O)CC[C@]3(C)C(=CCC4[C@@]5(C)C[C@@H](O)[C@H](OC(=O)/C=C\c6ccc(O)cc6)C(C)(C)C5CC[C@]43C)C2C1 (some centres unmarked) [Compound 17, 3-O-(Z)-p-coumaroyl maslinic acid]	2.6 ± 0.3 µM	strong PTP1B inhibitory activities; also recorded: significant inhibitory activity	showed glucose uptake stimulatory effects; also recorded: particularly potent glucose uptake stimulatory effects	Ki [3]: 2.7 ± 0.4 µM; Inhibition Type [3]: non-competitive inhibitor of PTP1B; concentration-response of glucose uptake stimulation [2]: dose dependent
